Assay results from patent publication US11639350B2, “Heteroaryldihydropyrimidine derivatives and methods of treating hepatitis B infections” (Janssen Pharmaceutica NV, priority 2018, dated 2023).
Like-named read-outs stand apart in the source and are kept apart here.

Tests used:
Assay type in all cases: cell-based
[1] = test system: HBV; test: HBV inhibitory activity: HBV DNA in the culture medium of HepG2.2.15 cells by q-PCR
Method in brief: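 HepG2.2.15 cells in 2% FBS medium, 40,000 per well, treated 6 days with compound (medium refreshed once), eight 3-fold dilutions from 10 μM top. HBV DNA extracted from culture medium and quantified by q-PCR; EC50 averaged over repeats. Cytotoxicity run in parallel at 5,000 cells per well, top 100 μM, giving CC50.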

[2] = test system: HepG2.2.15 cells; test: Cytotoxicity determination in HepG2.2.15 cells (CCK-8); conditions: 6 days of compound treatment, CCK-8, highest concentration 100 μM
Method in brief: (§1)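 HepG2.2.15 cells seeded at 5,000 cells/well in 2% FBS medium, incubated overnight at 37° C., then treated 6 days with compounds (8 points, 3-fold dilutions, top 100 μM), medium refreshed once midway. CCK-8 added for 2.5 h; A450 read against 630 nm reference; CC50 calculated, averaged over repeats.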

[3] = as above; conditions: human, 6 days of compound treatment, CCK-8, highest concentration 100 μM
Method in brief: as §1

[4] = HepG2.2.15 cells, 6 days of compound treatment, HBV DNA in culture medium by q-PCR, highest concentration 10 μM, read-out: EC50
[5] = Hepatitis B virus, HepG2.2.15, 144 h, HepG2.2.15 cells, 6 days of compound treatment, HBV DNA in culture medium by q-PCR, highest concentration 10 μM, read-out: EC50

| Compound | EC50 [1, 4] [nM] | CC50 [2] [µM] | EC50 [1, 5] [nM] | CC50 at 6 days [3] [µM] | EC50 ([1]; Hepatitis B virus, HepG2.2.15, 144 h) [nM] |
| --- | --- | --- | --- | --- | --- |
| CCOC(=O)C1=C([C@@H]2CCC[C@H](C(=O)O)CC2)NC(c2nccs2)=NC1c1ccc(F)c(F)c1Cl (relative stereo) [Compound 302E, (cis)-4-(−6-(2-Chloro-3,4-difluorophenyl)-5-(ethoxycarbonyl)-2-(thiazol-2-yl)-3,6-dihydropyrimidin-4-1)cycloheptanecarboxylic Acid] | 25 | 14.6 | – | – | – |
| COC(=O)C1=C(C2CCN(C)C(=O)C2)NC(c2nccs2)=NC1c1ccc(F)cc1Cl (single isomer, unassigned) [Compound 1A, Methyl 4-(2-chloro-4-fluorophenyl)-6-(1-methyl-2-oxopiperidin-4-yl)-2-(thiazol-2-yl)-1,4-dihydropyrimidine-5-carboxylate] | 386 | 90.2 | – | – | – |
| COC(=O)C1=C(C2CCN(C)C(=O)C2)NC(c2nccs2)=NC1c1ccc(F)cc1Cl (single isomer, unassigned) [Compound 1B, Methyl 4-(2-chloro-4-fluorophenyl)-6-(1-methyl-2-oxopiperidin-4-yl)-2-(thiazol-2-yl)-1,4-dihydropyrimidine-5-carboxylate] | 96 | 13.6 | – | – | – |
| COC(=O)C1=C(C2CCNC(=O)C2)NC(c2nccs2)=NC1c1ccc(F)cc1Cl (single isomer, unassigned) [Compound 3A, Methyl 4-(2-chloro-4-fluorophenyl)-6-(2-oxopiperidin-4-yl)-2-(thiazol-2-yl)-1,4-dihydro-pyrimidine-5-carboxylate] | – | 35.9 | 126 | – | – |
| COC(=O)C1=C(C2CCNC(=O)C2)NC(c2nccs2)=NC1c1ccc(F)cc1Cl (single isomer, unassigned) [Compound 3C, Methyl 4-(2-chloro-4-fluorophenyl)-6-(2-oxopiperidin-4-yl)-2-(thiazol-2-yl)-1,4-dihydro-pyrimidine-5-carboxylate] | 132 | 5.6 | – | – | – |
| COC(=O)C1=C(C2CCCN(S(C)(=O)=O)C2)NC(c2nccs2)=NC1c1ccc(F)cc1Cl (single isomer, unassigned) [Compound 33A, Methyl 4-(2-chloro-4-fluorophenyl)-6-(1-(methylsulfonyl)piperidin-3-yl)-2-(thiazol-2-yl)-1,4-dihydropyrimidine-5-carboxylate] | 190 | 78.1 | – | – | – |
| COC(=O)C1=C(C2CCCN(S(C)(=O)=O)C2)NC(c2nccs2)=NC1c1ccc(F)cc1Cl (single isomer, unassigned) [Compound 33C, Methyl 4-(2-chloro-4-fluorophenyl)-6-(1-(methylsulfonyl)piperidin-3-yl)-2-(thiazol-2-yl)-1,4-dihydropyrimidine-5-carboxylate] | 484 | 37.7 | – | – | – |
| COC(=O)C1=C(C2CCCOC2)NC(c2nccs2)=NC1c1ccc(F)cc1Cl (single isomer, unassigned) [Compound 48A, Methyl 4-(2-chloro-4-fluorophenyl)-6-(tetrahydro-2H-pyran-3-yl)-2-(thiazol-2-yl)-1,4-dihydropyrimidine-5-carboxylate] | 565 | 46.9 | – | – | – |
| COC(=O)C1=C(C2CCCOC2)NC(c2nccs2)=NC1c1ccc(F)cc1Cl (single isomer, unassigned) [Compound 48D, Methyl 4-(2-chloro-4-fluorophenyl)-6-(tetrahydro-2H-pyran-3-yl)-2-(thiazol-2-yl)-1,4-dihydropyrimidine-5-carboxylate] | 210 | > 100 | – | – | – |
| COC(=O)C1=C(C2CCC(NS(C)(=O)=O)C2)NC(c2nccs2)=NC1c1cccc(F)c1Cl (single isomer, unassigned) [Compound 61B, Methyl 4-(2-chloro-3-fluorophenyl)-6-(3-(methylsulfonamido)-cyclopentyl)-2-(thiazol-2-yl)-1,4-dihydropyrimidine-5-carboxylate] | 333 | > 20 | – | – | – |
| COC(=O)C1=C(C2CCC(NS(C)(=O)=O)C2)NC(c2nccs2)=NC1c1cccc(F)c1Cl (single isomer, unassigned) [Compound 61D, Methyl 4-(2-chloro-3-fluorophenyl)-6-(3-(methylsulfonamido)-cyclopentyl)-2-(thiazol-2-yl)-1,4-dihydropyrimidine-5-carboxylate] | 35 | 33.4 | – | – | – |
| COC(=O)C1=C(C2CCC(NS(C)(=O)=O)C2)NC(c2nccs2)=NC1c1cccc(F)c1Cl (single isomer, unassigned) [Compound 61E, Methyl 4-(2-chloro-3-fluorophenyl)-6-(3-(methylsulfonamido)cyclopentyl)-2-(thiazol-2-yl)-1,4-dihydropyrimidine-5-carboxylate] | 358 | 21.7 | – | – | – |
| COC(=O)C1=C(C2CCC(NS(C)(=O)=O)C2)NC(c2nccs2)=NC1c1cccc(F)c1Cl (single isomer, unassigned) [Compound 61G, Methyl 4-(2-chloro-3-fluorophenyl)-6-(3-(methylsulfonamido)-cyclopentyl)-2-(thiazol-2-yl)-1,4-dihydropyrimidine-5-carboxylate] | 423 | > 10 | – | – | – |
| COC(=O)C1=C(C2CCC(NC(C)=O)C2)NC(c2nccs2)=NC1c1cccc(F)c1Cl (single isomer, unassigned) [Compound 62B, Methyl 6-(3-acetamidocyclopentyl)-4-(2-chloro-3-fluorophenyl)-2-(thiazol-2-yl)-1,4-dihydropyrimidine-5-carboxylate] | 63 | 22.9 | – | – | – |
| COC(=O)C1=C(C2CCC(NC(C)=O)C2)NC(c2nccs2)=NC1c1cccc(F)c1Cl (single isomer, unassigned) [Compound 62D, Methyl 6-(3-acetamidocyclopentyl)-4-(2-chloro-3-fluorophenyl)-2-(thiazol-2-yl)-1,4-dihydropyrimidine-5-carboxylate] | 892 | 75.1 | – | – | – |
| COC(=O)C1=C(C2CCC(NC(C)=O)C2)NC(c2nccs2)=NC1c1cccc(F)c1Cl (single isomer, unassigned) [Compound 62G, Methyl 6-(3-acetamidocyclopentyl)-4-(2-chloro-3-fluorophenyl)-2-(thiazol-2-yl)-1,4-dihydropyrimidine-5-carboxylate] | 119 | 37.1 | – | – | – |
| COC(=O)C1=C(C2CCN(S(=O)(=O)c3cnn([C@H]4C[C@H](C(=O)O)C4)c3)CC2)NC(c2nccs2)=NC1c1ccc(F)cc1Cl (stereo partly drawn) [Compound 470, (trans)-3-(4-((4-(6-(2-Chloro-4-fluorophenyl)-5-(methoxycarbonyl)-2-(thiazol-2-yl)-3,6-dihydropyrimidin-4-yl)piperidin-1-yl)sulfonyl)-1H-pyrazol-1-yl)cyclobutanecarboxylic Acid] | – | – | 56 | 20.1 | – |
| COC(=O)C1=C(C2CCN(S(=O)(=O)c3cnn(CCCCC(=O)O)c3)CC2)NC(c2nccs2)=NC1c1ccc(F)cc1Cl (stereo not shown) [Compound 471, 5-(4-((4-(6-(2-Chloro-4-fluorophenyl)-5-(methoxycarbonyl)-2-(thiazol-2-yl)-3,6-dihydropyrimidin-4-yl)piperidin-1-yl)sulfonyl)-1H-pyrazol-1-yl)pentanoic Acid] | – | – | 53 | 32.3 | – |
| COC(=O)C1=C(C2CCN(S(=O)(=O)CCO)CC2)NC(c2nccs2)=NC1c1ccc(F)c(F)c1Cl (stereo not shown) [Compound 474, methyl 4-(2-chloro-3,4-difluorophenyl)-6-(1-((2-hydroxyethyl)sulfonyl)piperidin-4-yl)-2-(thiazol-2-yl)-1,4-dihydropyrimidine-5-carboxylate] | – | – | 7 | 18.3 | – |
| COC(=O)C1=C(C2CCN(S(=O)(=O)C3CCC(CC(=O)O)CC3)CC2)NC(c2nccs2)=NC1c1ccc(F)c(F)c1Cl (stereo not shown) [Compound 478, 2-(4-((4-(6-(2-Chloro-3,4-difluorophenyl)-5-(methoxycarbonyl)-2-(thiazol-2-yl)-3,6-dihydropyrimidin-4-yl)piperidin-1-yl)sulfonyl)cyclohexyl)acetic Acid] | – | – | 6 | 23.4 | – |
| CCOC(=O)C1=C(C2CCN(S(=O)(=O)CC3CC(C(=O)O)C3)CC2)NC(c2nccs2)=NC1c1ccc(F)c(F)c1Cl (stereo not shown) [Compound 480B, 3-(((4-(6-(2-Chloro-3,4-difluorophenyl)-5-(ethoxycarbonyl)-2-(thiazol-2-yl)-3,6-dihydropyrimidin-4-yl)piperidin-1-yl)sulfonyl)methyl)cyclobutanecarboxylic Acid] | – | – | 22 | 9.9 | – |
| CCOC(=O)C1=C(C2CCN(S(=O)(=O)C3CC(CC(=O)O)C3)CC2)NC(c2nccs2)=NC1c1ccc(F)c(F)c1Cl (stereo not shown) [Compound 482A, 2-(3-((4-(6-(2-Chloro-3,4-difluorophenyl)-5-(ethoxycarbonyl)-2-(thiazol-2-yl)-3,6-dihydropyrimidin-4-yl)piperidin-1-yl)sulfonyl)cyclobutyl)acetic Acid] | – | – | 6 | 15.3 | – |
| COC(=O)C1=C(C2CCN(S(=O)(=O)CCOCCO)CC2)NC(c2nccs2)=NC1c1ccc(F)cc1Cl (stereo not shown) [Compound 484, Methyl 4-(2-chloro-4-fluorophenyl)-6-(1-((2-(2-hydroxyethoxy)ethyl)sulfonyl)piperidin-4-yl)-2-(thiazol-2-yl)-1,4-dihydropyrimidine-5-carboxylate] | – | – | – | 47 | 5 |
